# Source: patent US6723702B2, “Use of relaxin treat diseases related to vasoconstriction” (RAS Medical, Inc., priority 2000, dated 2004)
# Tests used:
# [1] = system: bFGF and VEGF protein staining, peri-infarct area of the heart; assay: Rat LCAL model: immunohistochemical analysis of the peri-infarct area; assay type: in vivo
# Method: Immunohistochemical analysis of the peri-infarct area of the heart was performed as follows. Transverse sections from paraffin embedded hearts were obtained at 3 levels. Sections were stained with H&E to assess neovascularization. Slides of heart sections were deparaffinized in xylene and washed with ethanol. Slides were then rinsed in sterile double distilled water before proceeding with antigen retrieval, as recommended by the antibody vendor (Biogenex). Sections were incubated for 30 minutes in 1.5% normal goat blocking serum (Biogenex, San Ramon, Calif.) and washed three times for 5 minutes each with PBS. Sections were then incubated with a monoclonal antibody against VEGF (VEGF-C1), or a polyclonal antibody against bFGF (FGF-2-147) (both at 5 μg/ml), before washing with PBS. Primary, and anti-goat or anti-rabbit secondary antibodies were purchased from Santa Cruz Biotechnology (Santa Cruz, Calif.). Sections were then incubated in multilink, a biotinylated goat anti-immunoglobulin for use with mouse, rabbit, guinea pig and rat primary antibodies (Biogenex) for 30 minutes at room temperature, followed by washing twice for 10 minutes each with PBS. Sections were labeled with peroxidase conjugated streptavidin for 20 minutes before finally washing twice for 5 minutes with PBS and air-drying). […]
# human cardiac cells = assay: Cellular proliferation by 3H-thymidine incorporation in cardiac cells; assay type: cell-based
# Method: To determine if the effects of relaxin observed in the rat were also seen in human cells, total RNA from cardiac cells was extracted following treatment of cells with 1, 10, and 100 ng/ml relaxin for 24 hours. Human cardiac cells were cultured for 24 hours either without or with relaxin (1-100 ng/ml). Untreated cells were incubated for the same 24 hour period under hypoxic (2% O2) conditions. Using 150 ng of total RNA for human VEGF and bFGF transcripts and 10 ng of total RNA for GAPDH transcripts, primer/probe sets were used to generate RT-PCR products for human VEGF 165aa and 121aa isoforns and human bFGF. Data were analyzed using Sequence Detector v1.6.3 software (Applied Biosystems/PE). VEGF and bFGF expression levels are graphed relative to GAPDH transcript levels. Data are shown as means±SEM, where n=3 per treatment group; *p<0.05; Student-Newman-Keuls test. […] Absolute baseline levels of bFGF mRNA transcripts expressed by these cells were approximately 2-fold greater than those of either the VEGF121 or the VEGF165 isoforms. Total RNA from cells incubated under hypoxic conditions was analyzed as a positive control for the stimulation of VEGF isoforms. […] Relaxin had no effect on cellular proliferation, as assessed by ^3H-thymidine incorporation, on cellular morphology, or on desmin or vimentin staining patterns.
# [2] = system: Female Sprague-Dawley rats; assay: Kidney function in cyclosporine-treated rats; assay type: in vivo, rat; conditions: for GFR / Urine Flow: Normal = 1.0
# Method: Relaxin (rhRlx) was administrated via subcutaneous pumps at dose of either 0.1 mg/kg/day or 0.5 mg/kg/day for 10 days (day 0-10). On day B2 (baseline), Day 4, and Day 9, all rats were put into metabolic cages. The 24-hour urine volume was measured to calculate urine flow rate using the following formula: […]
# Blood and urine were collected for creatinine measurement to calculate the GFR using the following formula: […]
# small renal arteries = assay: Myogenic reactivity of isolated small renal arteries, pressurized arteriograph; assay type: in vivo, rat; conditions: female rats administered rhRLX for 5 days (FIG. 14)
# Description: Myogenic reactivity is a dynamic and complex integrative vascular behavior which can be assessed in small renal arteries utilizing the pressurized arteriograph. Equivalent tone was first established in all vessels by constricting them to 75% of their baseline diameter at 60 mm Hg using the adrenergic agonist, phenylephrine. Next the arteries which began at an initial pressure of 20 mm Hg were subjected to a rapid increase in transmural pressure of 20 mm Hg increments in the absence of flow. […] This blunted myogenic reactivity following rhRLX treatment of nonpregnant rats mimics pregnancy (Gandley RE, Conrad KP, McLaughlin MK. Am J Physiol Integrative Comp Physiol 280:R1-R7, 2001). Morever, as during pregnancy, this blunted myogenic reactivity can be reversed by adding inhibitors of nitric oxide to the vessel bath.
# [3] = system: small mesenteric arteries; assay: Myogenic reactivity of small mesenteric arteries; assay type: in vivo, rat; conditions: female rats chronically administered rhRLX (FIG. 15)
# THP-1 cells = assay: THP-1 cells: morphology, 3H-thymidine uptake, metalloproteinase expression; assay type: cell-based, human
# [4] = CsA and rhRlx at either 0.1 mg/kg or 0.5 mg/kg
# [5] = Normal rats + 0.5 mg/kg, Day 10
substance,measurement,setting,value
"rhRLX: recombinant human relaxin, identical in amino acid sequence to the product of the human H2 gene; A chain of 24, B chain of 29 amino acids",peri-infarct bFGF staining,"[1]; 7 and 21 days, vs vehicle-treated hearts, blinded scoring",more intense
same,intensity of VEGF staining,[1]; relaxin vs vehicle-treated hearts,No differences in intensity
same,"cellular proliferation, 3H-thymidine incorporation",human cardiac cells,no effect
same,GFR,"[2]; CsA + 0.1 mg/kg, Day 5",0.99 ± 0.15
same,Urine Flow,"[2]; CsA + 0.1 mg/kg, Day 5",1.21 ± 0.36
same,GFR,"[2]; CsA + 0.1 mg/kg, Day 10",1.49 ± 0.18
same,Urine Flow,"[2]; CsA + 0.1 mg/kg, Day 10",1.59 ± 0.41
same,GFR,"[2]; CsA + 0.5 mg/kg, Day 5",1.231 ± 0.15
same,Urine Flow,"[2]; CsA + 0.5 mg/kg, Day 5",1.27 ± 0.16
same,GFR,"[2]; CsA + 0.5 mg/kg, Day 10",1.39 ± 0.13
same,Urine Flow,"[2]; CsA + 0.5 mg/kg, Day 10",1.067 ± 0.11
same,creatinine clearance compared to animals treated with CsA alone,[2]; [4],significantly improved
same,urine flow rate compared to animals treated with CsA alone,[2]; [4],significantly improved
same,GFR,"[2]; Normal rats + 0.5 mg/kg, Day 5",1.47 ± 0.08
same,Urine Flow,"[2]; Normal rats + 0.5 mg/kg, Day 5",1.68 ± 0.02
same,GFR,[2]; [5],1.50 ± 0.09
same,Urine Flow,[2]; [5],1.42 ± 0.01
same,creatinine clearance compared to the baseline,"[2]; normal rats, 0.5 mg/kg, day 5",147%
same,urine flow rate compared to the baseline,"[2]; normal rats, 0.5 mg/kg, day 5",168%
same,myogenic reactivity ex vivo,small renal arteries,reduced myogenic reactivity
same,myogenic reactivity,[3],reduced myogenic reactivity
same,"morphological changes, such as adherence to plastic or aggregation",THP-1 cells,no observable morphological changes
